These results are taken from patent US10966970B2, “Fused tricyclic compounds and uses thereof in medicine” (SUNSHINE LAKE PHARMA CO., LTD., priority 2017, dated 2021).

One test relates to HBsAg secretion. Briefly: Inhibition of HBsAg secretion (ELISA). It counts as cell-based, HBV. Particulars: Hepatitis B virus, HepG2.2.15, 240 h, read-out: HbsAg IC50 (nM). How it is done: (§1) The chromosomes of HepG2.2.15 cells (SELLS, PNAS, 1987 and SELLS, JV, 1988) integrate the complete HBV genome and stably express viral RNA and viral proteins. HepG2.2.15 cells are able to secrete mature HBV particles and HBsAg into the culture medium. Viral particle DNA and HBsAg secreted by HepG 2.2.15 cells can be quantified by qPCR and ELISA methods, and the effects of the compound on virus replication and HBsAg secretion are thus examined.
HepG 2.2.15 Cells (8,000 per well) were seeded into 96-well cell culture plates in duplicate and cultured for 3 days until the cells grew to fill in pores. Cells were treated with 4-fold serial diluted compound solution for 10 days, and the compound solution was exchanged once every other day, the final concentration of DMSO in all wells was 0.5% and DMSO was used as a drug-free control. On the eleventh day, the supernatant was collected for quantitative detection of HBsAg.
The level of HBsAg secreted by the cells after treatment with the compound was detected by ELISA. The method used a hepatitis B surface antigen diagnostic kit (Shanghai K ehua Biotechnology Co., Ltd. 510910113). 25 ≈L of the supernatant to be examined (diluted to 75 ≈L in PBS) was added to each well of the ELISA plate, and a kit-positive control and a negative control were set. The ELISA plates were blocked with mounting paper and incubated at 37 eC for 60 minutes. The ELISA plate was took out, and the mounting paper was removed, then 50 ≈L of enzyme conjugate was added into each well. After shaking for 10 seconds, the ELISA plates were blocked with mounting paper and incubated at 37 eC for 30 minutes. The ELISA plate was took out, and the mounting paper was removed, and the ELISA plate was repeated washing five times: liquid in the wells was discard each time; the wells was filled with washing solution, then stood for 60 seconds and spined dry; and liquid residue on blotting paper was patted dry. After the washing was completed, to all wells was immediately added a mixture of freshly prepared developer A and developer B: 100 ≈L per well. After shaking for 10 seconds on oscillator, the ELISA plates were blocked with mounting paper and incubated at 37 eC for 30 minutes. To all wells were added 50 ≈L of stop solution. Data were read at a wavelength of 450 nm on an Envision plate reader. Concentration-HBsAg OD450 value was treated with Graphpad Prism 5 software and the IC50 of inhibition of HBsAg secretion by compounds was calculated by a four-parameter nonlinear regression model.

The subject of a further test is HBV DNA replication. Put plainly: Inhibition of HBV virus replication (HBV DNA in supernatant, qPCR). It counts as cell-based. As to conditions: Hepatitis B virus, 240 h; HepG2.2.15 cells, 10 days treatment, supernatant HBV DNA by qPCR. The protocol:
as §1
HepG 2.2.15 Cells (8,000 per well) were seeded into 96-well cell culture plates in duplicate and cultured for 3 days until the cells grew to fill in pores. Cells were treated with 4-fold serial diluted compound solution for 10 days, and the compound solution was exchanged once every other day, the final concentration of DMSO in all wells was 0.5% and DMSO was used as a drug-free control. On the eleventh day, the supernatant was collected for quantitative detection of HBV DNA.
qPCR method was used for detection of viral genomic DNA, HBV primers were as follows: HBV-For-202, […]; HBV-Rev-315, […].
Using the SY BR Premix Ex Taq II—Takara DRR081S kit, 1 ≈L of the cell culture supernatant was used as a template, a plasmid containing the HBV genome was used for plotting a standard curve, and virus copy number was calculated using the standard curve. Concentration-virus copy number was treated with Graphpad Prism 5 software and the IC50 of inhibition of virus replication by compounds was calculated by a four-parameter nonlinear regression model.

With `COCCCOc1cc2c(cc1-c1cncs1)-c1cc(=O)c(C(=O)O)cn1C(C(C)C)C2` (stereo not shown) [Example 33, 6-isopropyl-9-(3-methoxypropoxy)-2-oxo-10-(thiazol-5-yl)-6,7-dihydro-2H-pyrido[2,1-a]isoquinoline-3-carboxylic Acid], the figures for the half-maximal inhibitory concentration (IC50) in the test on HBsAg secretion and in the test on HBV DNA replication were 3.08 nM and 1.93 nM, respectively.
For `CCOCc1cc2c(cc1OCCCOC)CC(C(C)C)n1cc(C(=O)O)c(=O)cc1-2` (stereo not shown) [Example 7, 10-(ethoxymethyl)-6-isopropyl-9-(3-methoxypropoxy)-2-oxo-6,7-dihydro-2H-pyrido[2,1-a]isoquinoline-3-carboxylic Acid], in that order: 13.5 nM and 8.16 nM.
For `COCCCOc1cc2c(cc1-c1ccco1)-c1cc(=O)c(C(=O)O)cn1C(C(C)C)C2` (stereo not shown) [Example 11, 10-(furan-2-yl)-6-isopropyl-9-(3-methoxypropoxy)-2-oxo-6,7-dihydro-2H-pyrido[2,1-a]isoquinoline-3-carboxylic Acid], in that order: 1.6 nM and 1.9 nM.
For `COCCCOc1cc2c(cc1-c1csc(C)n1)-c1cc(=O)c(C(=O)O)cn1C(C(C)C)C2` (stereo not shown) [Example 14, 6-isopropyl-9-(3-methoxypropoxy)-10-(2-methylthiazol-4-yl)-2-oxo-6,7-dihydro-2H-pyrido[2,1-a]isoquinoline-3-carboxylic Acid], in that order: 7.2 nM and 3.36 nM.
`COCCCOc1cc2c(cc1C(C)=O)-c1cc(=O)c(C(=O)O)cn1C(C(C)C)C2` (stereo not shown) [Example 6, 10-acetyl-6-isopropyl-9-(3-methoxypropoxy)-2-oxo-6,7-dihydro-2H-pyrido[2,1-a]isoquinoline-3-carboxylic Acid]: the IC50 (usually the midpoint of a concentration-inhibition curve) stood at 3.63 nM with HBsAg secretion and 3.02 nM in the test on HBV DNA replication.
In the case of `COC(=O)c1cc2c(cc1-c1ccc(Cl)o1)CC(C(C)C)n1cc(C(=O)O)c(=O)cc1-2` (stereo not shown) [Example 74, 9-(5-chlorofuran-2-yl)-6-isopropyl-10-(methoxycarbonyl)-2-oxo-6,7-dihydro-2H-pyrido[2,1-a]isoquinoline-3-carboxylic Acid], the figures for the half-maximal inhibitory concentration (IC50) in the test with HBsAg secretion and in the test on HBV DNA replication were 3.68 nM and 2.97 nM, respectively.
Turning to `CC(C)C1Cc2cc(OCc3ccccc3)c(-c3nccs3)cc2-c2cc(=O)c(C(=O)O)cn21` (stereo not shown) [Example 18, 9-(benzyloxy)-6-isopropyl-2-oxo-10-(thiazol-2-yl)-6,7-dihydro-2H-pyrido[2,1-a]isoquinoline-3-carboxylic Acid], the half-inhibitory concentration (IC50) in the test with HBsAg secretion came out at 5.53 nM; in the test on HBV DNA replication, 8.09 nM.
For `COCCCOc1cc2c(cc1C(=O)OC)-c1cc(=O)c(C(=O)O)cn1C(C(C)C)C2` (stereo not shown) [Example 1, 6-isopropyl-10-(methoxycarbonyl)-9-(3-methoxypropoxy)-2-oxo-6,7-dihydro-2H-pyrido[2,1-a]isoquinoline-3-carboxylic Acid], in that order: 2.25 nM and 6.3 nM.
`CC(C)C1Cc2cc(N3CCCC3)c(-c3nccs3)cc2-c2cc(=O)c(C(=O)O)cn21` (stereo not shown) [Example 69, 6-isopropyl-2-oxo-9-(pyrrolidin-1-yl)-10-(thiazol-2-yl)-6,7-dihydro-2H-pyrido[2,1-a]isoquinoline-3-carboxylic Acid]: the half-maximal inhibitory concentration (IC50) is 15.2 nM in the test on HBsAg secretion and 10.2 nM in the test on HBV DNA replication.
For `CC(C)C1Cc2cc(OCCC3CC3)c(-c3nccs3)cc2-c2cc(=O)c(C(=O)O)cn21` (stereo not shown) [Example 22, 9-(2-cyclopropylethoxy)-6-isopropyl-2-oxo-10-(thiazol-2-yl)-6,7-dihydro-2H-pyrido[2,1-a]isoquinoline-3-carboxylic Acid], in that order: 0.65 nM and 0.84 nM.
For `CNC(=O)c1cc2c(cc1OCCCOC)CC(C(C)C)n1cc(C(=O)O)c(=O)cc1-2` (stereo not shown) [Example 5, 6-isopropyl-9-(3-methoxypropoxy)-10-(methylcarbamoyl)-2-oxo-6,7-dihydro-2H-pyrido[2,1-a]isoquinoline-3-carboxylic Acid], in that order: 9.88 nM and 10.6 nM.
For `COC(=O)c1cc2c(cc1N1CCCC1)CC(C(C)C)n1cc(C(=O)O)c(=O)cc1-2` (stereo not shown) [Example 34, 6-isopropyl-10-(methoxycarbonyl)-2-oxo-9-(pyrrolidin-1-yl)-6,7-dihydro-2H-pyrido[2,1-a]isoquinoline-3-carboxylic Acid], in that order: 9.85 nM and 4.74 nM.
Regarding `COC(=O)c1cc2c(cc1-c1ccc(Cl)s1)CC(C(C)C)n1cc(C(=O)O)c(=O)cc1-2` (stereo not shown) [Example 73, 9-(5-chlorothiophen-2-yl)-6-isopropyl-10-(methoxycarbonyl)-2-oxo-6,7-dihydro-2H-pyrido[2,1-a]isoquinoline-3-carboxylic Acid], the IC50 with HBsAg secretion worked out at 12.7 nM; in the test with HBV DNA replication, 3.88 nM.
For `COCCCOc1cc2c(cc1-c1csc(N)n1)-c1cc(=O)c(C(=O)O)cn1C(C(C)C)C2` (stereo not shown) [Example 8, 10-(2-aminothiazol-4-yl)-6-isopropyl-9-(3-methoxypropoxy)-2-oxo-6,7-dihydro-2H-pyrido[2,1-a]isoquinoline-3-carboxylic Acid], in that order: 6.28 nM and 4.46 nM.
As for `CC(C)C1Cc2cc(OCC3CCOCC3)c(-c3nccs3)cc2-c2cc(=O)c(C(=O)O)cn21` (stereo not shown) [Example 21, 6-isopropyl-2-oxo-9-((tetrahydro-2H-pyran-4-yl)methoxy)-10-(thiazol-2-yl)-6,7-dihydro-2H-pyrido[2,1-a]isoquinoline-3-carboxylic Acid], the IC50 turned out to be 0.35 nM in the test with HBsAg secretion and 0.3 nM with HBV DNA replication.
For `COCCCOc1cc2c(cc1-c1nccs1)-c1cc(=O)c(C(=O)O)cn1C(C(C)C)C2` (stereo not shown) [Example 9, 6-isopropyl-9-(3-methoxypropoxy)-2-oxo-10-(thiazol-2-yl)-6,7-dihydro-2H-pyrido[2,1-a]isoquinoline-3-carboxylic Acid], in that order: 0.25 nM and 0.18 nM.
For `COCCCOc1cc2c(cc1-c1ccccn1)-c1cc(=O)c(C(=O)O)cn1C(C(C)C)C2` (stereo not shown) [Example 67, 6-isopropyl-9-(3-methoxypropoxy)-2-oxo-10-(pyridin-2-yl)-6,7-dihydro-2H-pyrido[2,1-a]isoquinoline-3-carboxylic Acid], in that order: 7.77 nM and 4.36 nM.
For `COc1cc2c(cc1-c1ccc(Cl)s1)CC(C(C)C)n1cc(C(=O)O)c(=O)cc1-2` (stereo not shown) [Example 79, 9-(5-chlorothiophen-2-yl)-6-isopropyl-10-methoxy-2-oxo-6,7-dihydro-2H-pyrido[2,1-a]isoquinoline-3-carboxylic Acid], in that order: 2.95 nM and 2.01 nM.
Regarding `COc1cc2c(cc1-c1nccs1)CC(C(C)C)n1cc(C(=O)O)c(=O)cc1-2` (stereo not shown) [Example 75, 6-isopropyl-10-methoxy-2-oxo-9-(thiazol-2-yl)-6,7-dihydro-2H-pyrido[2,1-a]isoquinoline-3-carboxylic Acid], the half-maximal inhibitory concentration (IC50) in the test on HBsAg secretion came to 2.41 nM; in the test with HBV DNA replication, 2.1 nM.
As for `COC(=O)c1cc2c(cc1N1CC[C@H](OC(C)=O)C1)CC(C(C)C)n1cc(C(=O)O)c(=O)cc1-2` (stereo partly drawn) [Example 47, 9-((S)-3-acetoxypyrrolidin-1-yl)-6-isopropyl-10-(methoxycarbonyl)-2-oxo-6,7-dihydro-2H-pyrido[2,1-a]isoquinoline-3-carboxylic Acid], the IC50 with HBV DNA replication came out at 6.35 nM.
Same read-out and setting: to `COCCCOc1cc2c(cc1C(=O)CCC(F)(F)F)-c1cc(=O)c(C(=O)O)cn1C(C(C)C)C2` (stereo not shown) [Example 53, 6-isopropyl-9-(3-methoxypropoxy)-2-oxo-10-(4,4,4-trifluorobutanoyl)-6,7-dihydro-2H-pyrido[2,1-a]isoquinoline-3-carboxylic Acid] belongs 7.99 nM.
